The target of one experiment is T1, MCR-4 (Homo sapiens, UniProt P32245).
T1 construct: expressed in transfected cells; host or cells: HEK 293
The experiment can be described thus: Melanocortin receptor binding assay, competition with 125I-HP 467, HEK 293 cells expressing hMCR-4. As to conditions: inhibition of binding of 125I-HP 467, HEK 293 cells expressing MCR-4; for IC50: read-out: MC-4 IC50. The gist of the method: (§1)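 Intact-cell competition binding, 2.5 hr at 37 °C, in PBS/10% calf serum/1 mM CaCl2; hMCR-4 cells at 4×10^3 per tube, hMCR-1 cells at 2×10^4 per tube. Filtration on BSA/CaCl2-soaked GF/B, cold 50 mM Tris pH 7.4 washes, scintillation count.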

For another experiment, the target named is T2, MCR-1 (Homo sapiens, UniProt Q01726).
T2 construct: expressed in transfected cells; host or cells: HEK 293
Briefly: Melanocortin receptor binding assay, competition with 125I-HP 467, HEK 293 cells expressing hMCR-1. As to conditions: inhibition of binding of 125I-HP 467, HEK 293 cells expressing MCR-1; for IC50: read-out: MC-1 IC50. The gist of the method:
as §1

Where two headings read alike, the source gives them in different places.

T2 sequence (Q01726 whole entry): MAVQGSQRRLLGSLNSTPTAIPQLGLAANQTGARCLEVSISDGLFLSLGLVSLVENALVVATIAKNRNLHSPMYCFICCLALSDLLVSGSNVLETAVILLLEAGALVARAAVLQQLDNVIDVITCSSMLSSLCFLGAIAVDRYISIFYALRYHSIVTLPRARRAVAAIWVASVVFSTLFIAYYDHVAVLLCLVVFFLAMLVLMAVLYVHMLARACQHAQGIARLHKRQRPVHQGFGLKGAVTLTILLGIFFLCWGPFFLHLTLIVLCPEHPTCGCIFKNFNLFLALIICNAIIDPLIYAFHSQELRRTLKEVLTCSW
T1 sequence (P32245 whole entry): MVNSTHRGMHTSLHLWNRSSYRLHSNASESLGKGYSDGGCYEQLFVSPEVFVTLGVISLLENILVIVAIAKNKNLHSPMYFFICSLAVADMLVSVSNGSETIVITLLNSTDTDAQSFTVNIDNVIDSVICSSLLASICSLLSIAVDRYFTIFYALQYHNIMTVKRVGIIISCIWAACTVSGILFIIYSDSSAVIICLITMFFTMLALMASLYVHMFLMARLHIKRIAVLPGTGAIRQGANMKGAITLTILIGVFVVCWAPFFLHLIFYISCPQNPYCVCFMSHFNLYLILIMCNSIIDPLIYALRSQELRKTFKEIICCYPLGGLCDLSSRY

Take `COc1ccc(CCNCC2c3ccccc3CN(CCCCC(CN)NCc3ccccc3)C2c2ccc(Oc3ccccc3)cc2)cc1` (centres unmarked) [TRG 2414-147]: the concentration for half-maximal inhibition (IC50) – broadly, the concentration at which inhibition is half-maximal – was 8.5 µM on MCR-4 (TRG 2414 library) and 1.63 µM on MCR-1 (TRG 2414 library).
In the case of `COc1ccc(CCNCC2c3ccccc3CN(CCCCC(CN)NCC(C)c3ccc(CC(C)C)cc3)C2c2ccc(Oc3ccccc3)cc2)cc1` (centres unmarked) [TRG 2414-148], the “MC-4 IC50” value on MCR-4 (TRG 2414 library) is listed as “no fit”. Moreover, on MCR-1 (TRG 2414 library), the “MC-1 IC50” value is recorded as “no fit”.
Take `NCC(N)CCCCN1Cc2ccccc2C(CNCc2ccccc2)C1c1ccc(Oc2ccccc2)cc1` (centres unmarked) [TRG 2414-149]: the figures for the concentration for half-maximal inhibition (IC50) at MCR-4 (TRG 2414 library) and at MCR-1 (TRG 2414 library) were 2.69 µM and 2.86 µM, respectively.
For `NCC(CCCCN1Cc2ccccc2C(CNCc2ccccc2)C1c1ccc(Oc2ccccc2)cc1)NCCc1ccccc1` (centres unmarked) [TRG 2414-150], in that order: 16.3 µM and 9.42 µM.
For `NCC(CCCCN1Cc2ccccc2C(CNCc2ccccc2)C1c1ccc(Oc2ccccc2)cc1)NCc1ccccc1` (centres unmarked) [TRG 2414-151], in that order: 14.7 µM and 1.81 µM.
As to `CC(C)Cc1ccc(C(C)CNC(CN)CCCCN2Cc3ccccc3C(CNCc3ccccc3)C2c2ccc(Oc3ccccc3)cc2)cc1` (centres unmarked) [TRG 2414-152], at MCR-4 (TRG 2414 library), the “MC-4 IC50” value is “no fit”. The “MC-1 IC50” value on MCR-1 (TRG 2414 library) was “no fit”.
Take `NCC(N)CCCCN1Cc2ccccc2C(CNC2CCCCCC2)C1c1ccc(Oc2ccccc2)cc1` (centres unmarked) [TRG 2414-153]: the IC50 amounted to 4.09 µM on MCR-4 (TRG 2414 library) and 0.772 µM on MCR-1 (TRG 2414 library).
With `NCC(CCCCN1Cc2ccccc2C(CNC2CCCCCC2)C1c1ccc(Oc2ccccc2)cc1)NCCc1ccccc1` (centres unmarked) [TRG 2414-154], the 50% inhibitory concentration (IC50) on MCR-4 (TRG 2414 library) worked out at 7.52 µM; on MCR-1 (TRG 2414 library), 4.85 µM.
For `NCC(CCCCN1Cc2ccccc2C(CNC2CCCCCC2)C1c1ccc(Oc2ccccc2)cc1)NCc1ccccc1` (centres unmarked) [TRG 2414-155], the concentration for half-maximal inhibition (IC50) at MCR-4 (TRG 2414 library) amounted to 8.94 µM; at MCR-1 (TRG 2414 library) it was 2.03 µM.
Regarding `CC(C)Cc1ccc(C(C)CNC(CN)CCCCN2Cc3ccccc3C(CNC3CCCCCC3)C2c2ccc(Oc3ccccc3)cc2)cc1` (centres unmarked) [TRG 2414-156], the “MC-4 IC50” value on MCR-4 (TRG 2414 library) is on record as “no fit”. For the same molecule, at MCR-1 (TRG 2414 library), the 50% inhibitory concentration (IC50) was 18.6 µM.
With `NCC(N)CCCCN1Cc2ccccc2C(CNC2CCCCC2)C1c1ccc(Oc2ccccc2)cc1` (centres unmarked) [TRG 2414-157], the half-inhibitory concentration (IC50) at MCR-4 (TRG 2414 library) is 4.11 µM; at MCR-1 (TRG 2414 library), 1.11 µM.
For `NCC(CCCCN1Cc2ccccc2C(CNC2CCCCC2)C1c1ccc(Oc2ccccc2)cc1)NCc1ccccc1` (centres unmarked) [TRG 2414-159] the same measures were 9.82 µM and 1.4 µM.
On to `CC(C)Cc1ccc(C(C)CNC(CN)CCCCN2Cc3ccccc3C(CNC3CCCCC3)C2c2ccc(Oc3ccccc3)cc2)cc1` (centres unmarked) [TRG 2414-160], for which the “MC-4 IC50” value on MCR-4 (TRG 2414 library) is on record as “no fit”. Besides, the 50% inhibitory concentration (IC50) at MCR-1 (TRG 2414 library) was 17.5 µM.
Regarding `CCCOc1ccc(C2C(CNCc3ccccc3C(F)(F)F)c3ccccc3CN2CCCCC(N)CN)cc1` (centres unmarked) [TRG 2414-161], the results for the IC50 at MCR-4 (TRG 2414 library) and at MCR-1 (TRG 2414 library) were 11 µM and 7.98 µM, respectively.
For `CCCOc1ccc(C2C(CNCc3ccccc3C(F)(F)F)c3ccccc3CN2CCCCC(CN)NCc2ccccc2)cc1` (centres unmarked) [TRG 2414-163], in that order: 22.6 µM and 2.73 µM.
On to `CCCOc1ccc(C2C(CNCc3ccccc3C(F)(F)F)c3ccccc3CN2CCCCC(CN)NCC(C)c2ccc(CC(C)C)cc2)cc1` (centres unmarked) [TRG 2414-164], for which, on MCR-4 (TRG 2414 library), the “MC-4 IC50” value was “no fit”. Moreover, at MCR-1 (TRG 2414 library), the “MC-1 IC50” value is “no fit”.
On to `CCCOc1ccc(C2C(CNCc3ccccc3OCC)c3ccccc3CN2CCCCC(CN)NCCc2ccccc2)cc1` (centres unmarked) [TRG 2414-166], for which the IC50 at MCR-4 (TRG 2414 library) stood at 8.58 µM; on MCR-1 (TRG 2414 library) it was 6.82 µM.
Regarding `CCCOc1ccc(C2C(CNCc3ccccc3OCC)c3ccccc3CN2CCCCC(CN)NCc2ccccc2)cc1` (centres unmarked) [TRG 2414-167], the values for the IC50 on MCR-4 (TRG 2414 library) and at MCR-1 (TRG 2414 library) were 7.03 µM and 2.16 µM, respectively.
For `CCCOc1ccc(C2C(CNCc3ccccc3OCC)c3ccccc3CN2CCCCC(CN)NCC(C)c2ccc(CC(C)C)cc2)cc1` (centres unmarked) [TRG 2414-168] the same measures were 44.4 µM and 21.8 µM.
For `CCCOc1ccc(C2C(CNCCc3ccccc3OC)c3ccccc3CN2CCCCC(N)CN)cc1` (centres unmarked) [TRG 2414-169] the same measures were 5.34 µM and 0.518 µM.
For `CCCOc1ccc(C2C(CNCCc3ccccc3OC)c3ccccc3CN2CCCCC(CN)NCCc2ccccc2)cc1` (centres unmarked) [TRG 2414-170], in that order: 7.34 µM and 1.77 µM.
For `CCCOc1ccc(C2C(CNCCc3ccccc3OC)c3ccccc3CN2CCCCC(CN)NCc2ccccc2)cc1` (centres unmarked) [TRG 2414-171], the values for the concentration for half-maximal inhibition (IC50) on MCR-4 (TRG 2414 library) and on MCR-1 (TRG 2414 library) were 4.8 µM and 1.1 µM, respectively.
For `CCCOc1ccc(C2C(CNCCc3ccccc3OC)c3ccccc3CN2CCCCC(CN)NCC(C)c2ccc(CC(C)C)cc2)cc1` (centres unmarked) [TRG 2414-172], in that order: 39.6 µM and 15.7 µM.
For `CCCOc1ccc(C2C(CNCCc3cccc(Cl)c3)c3ccccc3CN2CCCCC(N)CN)cc1` (centres unmarked) [TRG 2414-173] the same measures were 4.22 µM and 1.96 µM.
For `CCCOc1ccc(C2C(CNCCc3cccc(Cl)c3)c3ccccc3CN2CCCCC(CN)NCc2ccccc2)cc1` (centres unmarked) [TRG 2414-175] the same measures were 6.08 µM and 4.14 µM.
For the molecule `CCCOc1ccc(C2C(CNCCc3cccc(Cl)c3)c3ccccc3CN2CCCCC(CN)NCC(C)c2ccc(CC(C)C)cc2)cc1` (centres unmarked) [TRG 2414-176], the “MC-4 IC50” value at MCR-4 (TRG 2414 library) is given as “no fit”. In addition, at MCR-1 (TRG 2414 library), the IC50 turned out to be 21.9 µM.
Regarding `CCCOc1ccc(C2C(CNCc3cccc(OC)c3)c3ccccc3CN2CCCCC(CN)NCCc2ccccc2)cc1` (centres unmarked) [TRG 2414-178], the concentration for half-maximal inhibition (IC50) was 8.13 µM on MCR-4 (TRG 2414 library) and 2.18 µM at MCR-1 (TRG 2414 library).
For `CCCOc1ccc(C2C(CNCc3cccc(OC)c3)c3ccccc3CN2CCCCC(CN)NCc2ccccc2)cc1` (centres unmarked) [TRG 2414-179], in that order: 5.48 µM and 0.998 µM.
For `CCCOc1ccc(C2C(CNCc3ccc(OC)cc3)c3ccccc3CN2CCCCC(N)CN)cc1` (centres unmarked) [TRG 2414-181], in that order: 6.83 µM and 0.468 µM.
With `CCCOc1ccc(C2C(CNCc3ccc(OC)cc3)c3ccccc3CN2CCCCC(CN)NCCc2ccccc2)cc1` (centres unmarked) [TRG 2414-182], the half-inhibitory concentration (IC50) was 4.11 µM at MCR-4 (TRG 2414 library) and 1.48 µM at MCR-1 (TRG 2414 library).
For `CCCOc1ccc(C2C(CNCc3ccc(OC)cc3)c3ccccc3CN2CCCCC(CN)NCc2ccccc2)cc1` (centres unmarked) [TRG 2414-183] the same measures were 4.95 µM and 1.09 µM.
In the case of `CCCOc1ccc(C2C(CNCc3ccc(OC)cc3)c3ccccc3CN2CCCCC(CN)NCC(C)c2ccc(CC(C)C)cc2)cc1` (centres unmarked) [TRG 2414-184], the values for the IC50 at MCR-4 (TRG 2414 library) and at MCR-1 (TRG 2414 library) were 27.9 µM and 17 µM, respectively.
Take `CCCCNc1ccc(C2C(CO)c3ccccc3CN2CCCC(CN)NCCC2CCCCC2)cc1` (centres unmarked) [TRG 2415-1]: the half-inhibitory concentration (IC50) at MCR-4 is 5.04 µM; at MCR-1, 1.93 µM.
Consider `NCC(CCCN1Cc2ccccc2C(CO)C1c1ccc(O)cc1)NCCC1CCCCC1` (centres unmarked) [TRG 2415-2], for which the IC50 is 0.94 µM on MCR-4 and 2.24 µM on MCR-1.
For `CCOc1ccc(C2C(CO)c3ccccc3CN2CCCC(CN)NCCC2CCCCC2)cc1` (centres unmarked) [TRG 2415-3] the same measures were 2.38 µM and 1.44 µM.
For `CC(C)Oc1ccc(C2C(CO)c3ccccc3CN2CCCC(CN)NCCC2CCCCC2)cc1` (centres unmarked) [TRG 2415-5] the same measures were 0.96 µM and 2.52 µM.
For `CCCCOc1ccc(C2C(CO)c3ccccc3CN2CCCC(CN)NCCC2CCCCC2)cc1` (centres unmarked) [TRG 2415-6] the same measures were 5 µM and 2.39 µM.
Regarding `CCc1ccc(C2C(CO)c3ccccc3CN2CCCC(CN)NCCC2CCCCC2)cc1` (centres unmarked) [TRG 2415-7], the figures for the IC50 at MCR-4 and at MCR-1 were 2.13 µM and 4.8 µM, respectively.
For `CCCCCc1ccc(C2C(CO)c3ccccc3CN2CCCC(CN)NCCC2CCCCC2)cc1` (centres unmarked) [TRG 2415-8] the same measures were 13.8 µM and 6.21 µM.
For `NCC(CCCN1Cc2ccccc2C(CN)C1c1ccc(O)cc1)NCCC1CCCCC1` (centres unmarked) [TRG 2415-9], in that order: 1.95 µM and 3 µM.
For `CCOc1ccc(C2C(CN)c3ccccc3CN2CCCC(CN)NCCC2CCCCC2)cc1` (centres unmarked) [TRG 2415-10], the 50% inhibitory concentration (IC50) was found to be 1.76 µM at MCR-4 and 0.46 µM on MCR-1.
For `CCCOc1ccc(C2C(CN)c3ccccc3CN2CCCC(CN)NCCC2CCCCC2)cc1` (centres unmarked) [TRG 2415-11] the same measures were 1.52 µM and 0.441 µM.
Consider `CCCCOc1ccc(C2C(CN)c3ccccc3CN2CCCC(CN)NCCC2CCCCC2)cc1` (centres unmarked) [TRG 2415-12], for which the values for the half-maximal inhibitory concentration (IC50) at MCR-4 and at MCR-1 were 3.89 µM and 0.677 µM, respectively.
For `CCc1ccc(C2C(CN)c3ccccc3CN2CCCC(CN)NCCC2CCCCC2)cc1` (centres unmarked) [TRG 2415-13], the IC50 on MCR-4 is 0.87 µM; on MCR-1, 1.83 µM.
For `CCCCCc1ccc(C2C(CN)c3ccccc3CN2CCCC(CN)NCCC2CCCCC2)cc1` (centres unmarked) [TRG 2415-14], in that order: 9.39 µM and 1.69 µM.
As for `CCNC(CN)CCCCN1Cc2ccccc2C(CN)C1c1ccc(O)cc1` (centres unmarked) [TRG 2415-15], the half-maximal inhibitory concentration (IC50) on MCR-4 worked out at 63.9 µM. Further, at MCR-1, the “MC-1 IC50” value is recorded as “no fit”.
With `CCNC(CN)CCCCN1Cc2ccccc2C(CN)C1c1ccc(OCC)cc1` (centres unmarked) [TRG 2415-16], the half-maximal inhibitory concentration (IC50) on MCR-4 amounted to 3.99 µM; at MCR-1 it was 1.33 µM.
For `CCCOc1ccc(C2C(CN)c3ccccc3CN2CCCCC(CN)NCC)cc1` (centres unmarked) [TRG 2415-17] the same measures were 9.35 µM and 0.581 µM.
For `CCNC(CN)CCCCN1Cc2ccccc2C(CN)C1c1ccc(CC)cc1` (centres unmarked) [TRG 2415-19] the same measures were 2.04 µM and 1.46 µM.

Values taken from patent US6608082B1, “Treatment of erectile dysfunction using isoquinoline compound melanocortin receptor ligands” (Lion Bioscience AG, priority 1998, dated 2003).
